Data on two molecules can be found in patent publication US3965151A, “Intermediates for tricyclic benzodiazepines” (Hoffmann-La Roche Inc., priority 1975, dated 1976).

Assay type in all cases: in vivo
Assay [1] has as its system mice. Briefly: Foot Shock (blocking of foot shock-induced fighting in pairs of mice). The settings on record: oral, 1 hour prior to second shocking, three out of three pairs blocked from fighting. As for the experimental part: This test is a screen for compounds having muscle relaxant and/or anti-anxiety (tranquilizer) activity. A pair of mice is confined under a 1 liter beaker placed on a grid which presents shock to the feet. At least five fighting episodes are elicited in a 2-minute period. Pairs of mice are marked and pretreated by oral dosage 1 hour prior to a second shocking. Logarithmic-dose intervals are utilized up to a maximum of 100 mg/kgm. At the 100 per cent blocking dose, three out of three pairs must be blocked from fighting.

Assay [2] relates to mice. Briefly: Inclined Screen (paralyzing effects, muscle relaxant and/or sedative activity). Particulars: Mus musculus, 4 h; male mice, at least four hours observation; dose expected to cause 50 per cent of mice to slide off the screen; read-out: Inclined Screen PD50. As for the experimental part: The test is useful in determining muscle relaxant and/or sedative activity. Groups of six male mice are given the test drug (maximum dose of 500 mg/kg.) and then are left on the inclined screen at least four hours for observation of paralyzing effects severe enough to cause them to slide off the screen. If activity is observed, additional doses are tested until at least two are reached at which some, but not all the animals slide off the screen. Doses at which mice fall off the screen due to toxicity or excitation are not included in the calculation of PD50. The PD50 is determined from a graph on which dose is plotted against per cent of mice paralyzed. This PD50 value is defined as the dose in mg/kg. which can be expected to cause 50 per cent of mice to slide off the screen.

Another assay concerns Cats. Put plainly: Unanesthetized Cat (minimum symptoms, usually ataxia; muscle relaxant activity). Particulars: Felis catus, oral, read-out: Unanesthetized Cat MED. As for the experimental part:
Cats are treated orally and observed for minimum symptoms--usually ataxia. One cat is used at a dose of 50 mgm/kgm. If activity is present, up to three cats/dose are used. Results are given as minimum effective dose. This test is useful in determining muscle relaxant activity.

The subject of assay [3] is mice. Put plainly: Antimetrazol (protection from metrazol-induced convulsive seizures). The settings on record: Mus musculus, oral, 1 hour before metrazol ~125 mg/kg s.c., 50 per cent of animals protected from convulsive seizures, read-out: Antimetrazole ED50. Here is the method:
This test determines anticonvulsant and/or sedative activity of compounds in mice. The test compound is administered orally to groups of four mice at various dose levels. One hour later, metrazol (at a dose level previously determined to be sufficient to induce convulsive seizures in all test animals ~125 mg/kg.) is administered subcutaneously and the animals are observed for protection from convulsive seizures. Results are recorded as the number of animals protected against convulsions. The dose at which 50 per cent of the animals are protected from convulsive seizures is expressed as the ED50.

`O=C1CN2CCOC2(c2ccccc2)c2cc(Cl)ccc2N1CCO` (stereo not shown) [Compound A, 10-chloro-7-(2-hydroxyethyl)-2,3,5,11b-tetrahydro-11b-phenyloxazolo[3,2-d][1,4]benzodiazepin-6-(7H)-one]: in the assay with mice [1], the “Footshock 100% Blocking Dose Level” value is listed as 20 mg. For the same molecule, in the assay with mice [2], the ED50 was determined as 50 mg/kg. The minimal effective dose in the assay with Cats amounted to 5 mg/kg.
In the case of `O=C1CN2CCOC2(c2ccccc2F)c2cc(Cl)ccc2N1CCO` (stereo not shown) [Compound B, 10-Chloro-11b-(2-fluorophenyl)-7-(2-hydroxyethyl)-2,3,5,11b-tetrahydrooxazolo[3,2-d][1,4]benzodiazepin-6(7H)-one], in the assay with mice [1], the “Footshock 100% Blocking Dose Level” value amounted to 4 mg. In addition, the ED50 was found to be 15 mg/kg with mice [2] and 2.03 mg/kg in the assay on mice [3]. Besides, the minimal effective dose in the assay with Cats came to 5 mg/kg.
